Data: US12486495B2, “Cardiac organoid, manufacturing method therefor, and method for evaluating drug toxicity by using same” (priority 2020, dated 2025)

System: cardiac organoid

COc1ccc(CCN(C)CCCC(C#N)(c2ccc(OC)c(OC)c2)C(C)C)cc1OC (stereo not shown) [verapamil]
beating velocity after treatment with calcium antagonist (FIG. 13A, heat maps for beating velocity, after drug treatment): reduced | beating velocity after washing (FIG. 13A, after washing and culturing for 1 hour): again increased | conduction displacement after treatment (comparison of three treatment amount groups (100 nM, 1 μM, 10 μM), FIG. 13B/13C): highest in a 1 μM group | conduction displacement after washing (comparison of three treatment amount groups, FIG. 13B/13C): highest in the 1 μM group | beat rate variation after washing (comparison of three treatment amount groups, FIG. 13C): highest in the 10 μM group | drug toxicity of the heart, comparison (inferred from beat rate variation at low treatment amount): higher than that of nifedipine | treatment amount at which side effects in the heart in vivo may be caused (inferred from beat rate variation of the cardiac organoid): ≥ 100 nM
